According to ChEMBL document CHEMBL1201862, “PubChem BioAssay data set” (2004):
The source made the active and inactive calls.

Key:
[1] = target: T1, Aminopeptidase N (Plasmodium falciparum FcB1/Columbia, UniProt O96935); test: P. falciparum M1AAP inhibitors, biochemical, fluorogenic H-Leu-NHMec substrate, 1536-well (AID 1445); set-up: species or system Plasmodium falciparum 3D7, 3D7
T1 sequence (O96935 whole entry): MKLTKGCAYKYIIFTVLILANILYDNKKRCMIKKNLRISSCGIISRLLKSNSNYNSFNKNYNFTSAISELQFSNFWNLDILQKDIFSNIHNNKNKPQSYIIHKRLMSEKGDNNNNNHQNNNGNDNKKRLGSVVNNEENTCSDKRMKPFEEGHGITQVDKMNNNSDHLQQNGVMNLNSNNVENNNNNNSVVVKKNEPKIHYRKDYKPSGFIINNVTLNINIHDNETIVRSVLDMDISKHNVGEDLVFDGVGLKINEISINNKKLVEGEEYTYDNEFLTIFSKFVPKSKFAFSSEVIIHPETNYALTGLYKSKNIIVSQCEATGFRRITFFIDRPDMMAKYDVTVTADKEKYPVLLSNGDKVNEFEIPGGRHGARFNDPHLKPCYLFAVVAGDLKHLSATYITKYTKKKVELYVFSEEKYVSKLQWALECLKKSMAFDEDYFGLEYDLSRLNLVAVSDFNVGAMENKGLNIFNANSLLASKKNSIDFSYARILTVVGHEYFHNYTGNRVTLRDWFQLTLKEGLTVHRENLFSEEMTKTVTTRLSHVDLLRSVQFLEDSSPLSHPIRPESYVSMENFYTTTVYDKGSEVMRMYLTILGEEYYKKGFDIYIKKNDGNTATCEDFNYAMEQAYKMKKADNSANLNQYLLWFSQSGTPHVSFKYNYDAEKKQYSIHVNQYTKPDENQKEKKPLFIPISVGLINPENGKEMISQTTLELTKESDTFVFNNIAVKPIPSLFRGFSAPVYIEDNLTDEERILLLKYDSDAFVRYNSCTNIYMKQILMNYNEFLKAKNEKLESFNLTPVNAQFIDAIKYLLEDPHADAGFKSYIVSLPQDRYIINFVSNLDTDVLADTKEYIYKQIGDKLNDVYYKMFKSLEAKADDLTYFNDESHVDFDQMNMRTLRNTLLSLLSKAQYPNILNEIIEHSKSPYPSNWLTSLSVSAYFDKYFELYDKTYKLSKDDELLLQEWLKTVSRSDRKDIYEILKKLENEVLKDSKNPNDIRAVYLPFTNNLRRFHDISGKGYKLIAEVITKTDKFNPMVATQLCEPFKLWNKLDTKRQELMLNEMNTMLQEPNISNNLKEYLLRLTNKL

[2] = target: T2, G-protein coupled receptor 55 (Homo sapiens, UniProt Q9Y2T6); test: GPR55 antagonists blocking LPI-driven arrestin recruitment, primary screen, imaging, U2OS, beta-arrestin-GFP, LPI agonist (AID 2013); format: functional;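 also: antagonist potency measured as reduced agonist-driven arrestin aggregation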
[3] = target: T3, Endoribonuclease toxin MazF (Escherichia coli K-12, UniProt P0AE70); test: fluorescent RNA oligo signal without MazF, dose response, counter-screen for MazEF activator project, biochemical, fluorescence, single-stranded RNase substrate (AID 588502); format: functional
T3 sequence (P0AE70 whole entry): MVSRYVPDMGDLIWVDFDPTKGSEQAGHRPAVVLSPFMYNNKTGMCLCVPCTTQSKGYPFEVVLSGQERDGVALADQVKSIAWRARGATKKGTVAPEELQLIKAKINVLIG

[4] = target: T3, Endoribonuclease toxin MazF; test: MazF toxin RNase activators, dose response, biochemical, fluorescence, single-stranded RNA substrate, uHTS hits (AID 588481); format: functional
[5] = target: T4, Alkaline phosphatase, tissue-nonspecific isozyme (Homo sapiens, UniProt P05186); test: human TNAP enzyme inhibitors, SAR follow-up, biochemical, luminescent, dose response (AID 1056)
T4 sequence (P05186 whole entry): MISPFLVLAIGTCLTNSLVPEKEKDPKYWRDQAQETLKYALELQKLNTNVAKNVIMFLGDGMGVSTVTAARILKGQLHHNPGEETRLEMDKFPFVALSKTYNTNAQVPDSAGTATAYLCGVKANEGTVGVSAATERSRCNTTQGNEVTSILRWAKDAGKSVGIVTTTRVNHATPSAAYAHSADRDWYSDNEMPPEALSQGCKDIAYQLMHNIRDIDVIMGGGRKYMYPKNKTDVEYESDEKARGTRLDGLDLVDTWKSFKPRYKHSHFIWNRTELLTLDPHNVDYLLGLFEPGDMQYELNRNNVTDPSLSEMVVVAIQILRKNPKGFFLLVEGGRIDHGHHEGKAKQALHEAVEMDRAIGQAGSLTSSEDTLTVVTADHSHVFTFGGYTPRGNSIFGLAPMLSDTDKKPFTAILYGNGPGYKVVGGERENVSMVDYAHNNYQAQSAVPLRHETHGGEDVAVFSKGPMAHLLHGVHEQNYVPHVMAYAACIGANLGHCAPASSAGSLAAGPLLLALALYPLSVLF

[6] = target: Glyceraldehyde-3-phosphate dehydrogenase (Homo sapiens, UniProt P04406)
[7] = target: T5, Galanin receptor type 3 (Homo sapiens, UniProt O60755); test: Fluorescence-based cell-based primary high throughput dose response assay to identify antagonists of the Galanin Receptor 3 (GalR3).; format: functional
T5 sequence (O60755 whole entry): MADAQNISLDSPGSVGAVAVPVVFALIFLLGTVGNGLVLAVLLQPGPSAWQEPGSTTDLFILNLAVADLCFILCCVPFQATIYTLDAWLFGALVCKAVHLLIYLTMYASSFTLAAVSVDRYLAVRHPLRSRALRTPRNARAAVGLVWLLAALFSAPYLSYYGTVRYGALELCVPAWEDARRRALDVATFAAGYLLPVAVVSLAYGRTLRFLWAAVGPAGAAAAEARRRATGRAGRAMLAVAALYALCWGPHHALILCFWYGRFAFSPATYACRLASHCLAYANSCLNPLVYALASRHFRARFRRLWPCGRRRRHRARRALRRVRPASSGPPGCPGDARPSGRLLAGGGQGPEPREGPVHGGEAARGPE

[8] = target: T6, Ubiquitin-conjugating enzyme E2 N (Homo sapiens, UniProt P61088); format: functional
T6 sequence (P61088 whole entry): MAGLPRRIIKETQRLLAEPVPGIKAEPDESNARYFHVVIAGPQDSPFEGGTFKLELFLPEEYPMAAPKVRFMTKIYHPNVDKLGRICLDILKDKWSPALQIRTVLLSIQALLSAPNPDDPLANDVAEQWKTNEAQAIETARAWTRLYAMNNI

[9] = target: T7, Bcl-2-related protein A1 (Mus musculus, UniProt Q07440); format: functional;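 also: confirmatory dose–response counterscreen on Bfl-1, used to check hits from a UBC13 polyubiquitin inhibitor campaign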
T7 sequence (Q07440 whole entry): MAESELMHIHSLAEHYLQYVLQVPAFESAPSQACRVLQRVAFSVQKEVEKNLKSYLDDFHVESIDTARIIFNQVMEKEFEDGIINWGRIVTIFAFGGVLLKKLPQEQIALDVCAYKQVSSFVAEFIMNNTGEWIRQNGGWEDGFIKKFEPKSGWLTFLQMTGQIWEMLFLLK

[10] = cells; format: functional, cell-based; conditions: HEK-CNG
[11] = target: T6, Ubiquitin-conjugating enzyme E2 N; format: functional; remark: listed apart in the source
[12] = target: Peroxisome proliferator-activated receptor gamma/Nuclear receptor coactivator 2 (Homo sapiens, UniProt P37231); test: (§1) TR-FRET dose response biochemical High Throughput Screening assay for agonists of the steroid receptor coactivator 2 (SRC-2) recruitment by the peroxisome proliferator-activated receptor gamma (PPAR gamma): non-selective agonists. [Related pubchem assays: 1297, 1032 ]; format: functional
[13] = target: Peroxisome proliferator-activated receptor gamma/Nuclear receptor coactivator 3 (Homo sapiens, UniProt P37231); test: as §1, with “3 (SRC-3)” for “2 (SRC-2)”, “1301 (Confirmation screen.), 1048 (Primary screen.)]” for “1297, 1032 ]”; format: functional
[14] = target: Peroxisome proliferator-activated receptor gamma/Nuclear receptor coactivator 1 (Homo sapiens, UniProt P37231); test: as §1, with “1 (SRC-1)” for “2 (SRC-2)”, “assays (depositor defined):AID1300, AID1808, AID504735, AID631]” for “assays: 1297, 1032 ]”; format: protein assay
[15] = target: T8, Streptokinase A (Streptococcus pyogenes serotype M1, UniProt P10520); test: S. pyogenes streptokinase expression inhibitors, potency, dose response, plasminogen activation absorbance, OD405 (AID 1914); format: functional, Streptococcus pyogenes M1 GAS;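 also: secreted streptokinase activity via plasminogen activation per viability signal from cell pellet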
T8 sequence (P10520 whole entry): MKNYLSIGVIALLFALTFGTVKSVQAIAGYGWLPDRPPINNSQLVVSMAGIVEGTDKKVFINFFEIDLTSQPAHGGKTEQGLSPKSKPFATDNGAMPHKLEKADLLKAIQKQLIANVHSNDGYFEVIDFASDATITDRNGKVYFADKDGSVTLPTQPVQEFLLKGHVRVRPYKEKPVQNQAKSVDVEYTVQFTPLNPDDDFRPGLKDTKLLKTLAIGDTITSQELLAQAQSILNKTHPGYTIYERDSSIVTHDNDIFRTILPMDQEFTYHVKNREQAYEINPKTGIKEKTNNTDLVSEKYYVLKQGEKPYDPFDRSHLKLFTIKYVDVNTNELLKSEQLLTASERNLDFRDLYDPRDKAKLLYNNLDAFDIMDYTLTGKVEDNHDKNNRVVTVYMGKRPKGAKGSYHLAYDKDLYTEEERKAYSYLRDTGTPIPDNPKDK

[16] = cytotoxicity in KRAS-transformed pancreatic duct cells, primary screen, cell-based, fluorescence, HTS (AID 431); format: functional; conditions: Homo sapiens;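 also: cell line used: HPDE-C7K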
[17] = target: T2, G-protein coupled receptor 55; test: GPR55 agonists via beta-arrestin recruitment, primary screen, imaging, U2OS cells, beta-arrestin-GFP redistribution (AID 1961); format: functional
[18] = cytotoxicity in HPDE-C7 cells, cell-based, fluorescence, HTS (AID 430); format: functional; conditions: Homo sapiens
[19] = target: Cytochrome P450 3A4 (Homo sapiens, UniProt P08684);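 also: CYP3A4 tested as one member of a cytochrome P450 panel screen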
[20] = test system: Streptococcus; test: Group A Streptococcus viability loss, dose response, counter-screen for streptokinase expression inhibitor project, luminescence, BacTiterGlo (AID 1915); format: functional, organism-based;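 also: potency for reduction of bacterial viability or growth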
[21] = test system: Streptococcus sp. 'group A'; test: growth inhibition of control SK(-) GAS strain, dose response, counter-screen for streptokinase expression inhibitor project, luminescence, kanamycin, BacTiterGlo, confirmation (AID 1900); format: functional, organism-based
[22] = target: Voltage-dependent T-type calcium channel subunit alpha-1H (Homo sapiens, UniProt O95180); format: functional;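 also: channel activity triggered by adding a high calcium stimulation buffer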
[23] = test system: Vero; test: cells; format: functional; conditions: Chlorocebus sabaeus
[24] = test system: Vero; test: cells; format: functional, cell-based; conditions: Chlorocebus sabaeus

T2 sequence (Q9Y2T6 whole entry): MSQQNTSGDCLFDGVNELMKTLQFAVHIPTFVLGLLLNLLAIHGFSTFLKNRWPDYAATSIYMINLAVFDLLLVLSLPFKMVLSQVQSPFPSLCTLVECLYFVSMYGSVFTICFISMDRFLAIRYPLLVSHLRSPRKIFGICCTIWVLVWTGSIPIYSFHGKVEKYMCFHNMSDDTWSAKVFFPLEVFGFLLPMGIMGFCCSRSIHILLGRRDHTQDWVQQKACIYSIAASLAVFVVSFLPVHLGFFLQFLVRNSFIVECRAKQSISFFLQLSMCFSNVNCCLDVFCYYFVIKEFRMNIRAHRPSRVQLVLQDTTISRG
Glyceraldehyde-3-phosphate dehydrogenase, sequence (P04406 whole entry): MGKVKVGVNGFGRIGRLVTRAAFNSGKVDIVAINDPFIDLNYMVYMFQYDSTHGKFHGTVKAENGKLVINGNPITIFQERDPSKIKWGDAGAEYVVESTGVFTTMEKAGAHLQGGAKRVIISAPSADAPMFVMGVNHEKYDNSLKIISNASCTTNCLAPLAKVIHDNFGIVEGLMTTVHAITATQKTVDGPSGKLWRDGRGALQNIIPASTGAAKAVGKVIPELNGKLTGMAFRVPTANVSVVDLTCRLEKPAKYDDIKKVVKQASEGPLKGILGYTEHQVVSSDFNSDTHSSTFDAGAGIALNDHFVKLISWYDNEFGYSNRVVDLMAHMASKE
Peroxisome proliferator-activated receptor gamma/Nuclear receptor coactivator 2, sequence (P37231 whole entry): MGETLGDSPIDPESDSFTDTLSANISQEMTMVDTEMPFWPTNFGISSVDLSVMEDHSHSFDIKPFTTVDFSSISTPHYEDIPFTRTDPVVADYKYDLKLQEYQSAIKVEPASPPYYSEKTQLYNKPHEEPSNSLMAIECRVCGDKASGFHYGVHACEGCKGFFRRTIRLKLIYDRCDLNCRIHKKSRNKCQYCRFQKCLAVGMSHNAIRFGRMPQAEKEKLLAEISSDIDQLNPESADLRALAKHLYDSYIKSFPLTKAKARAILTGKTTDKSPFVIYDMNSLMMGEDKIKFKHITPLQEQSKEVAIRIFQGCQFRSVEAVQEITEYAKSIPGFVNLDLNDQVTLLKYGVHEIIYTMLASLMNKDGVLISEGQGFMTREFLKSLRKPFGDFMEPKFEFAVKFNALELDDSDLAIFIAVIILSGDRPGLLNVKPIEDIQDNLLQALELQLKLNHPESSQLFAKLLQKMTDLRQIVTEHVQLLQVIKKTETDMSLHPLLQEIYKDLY
Peroxisome proliferator-activated receptor gamma/Nuclear receptor coactivator 2, sequence (Q15596 whole entry, further chain): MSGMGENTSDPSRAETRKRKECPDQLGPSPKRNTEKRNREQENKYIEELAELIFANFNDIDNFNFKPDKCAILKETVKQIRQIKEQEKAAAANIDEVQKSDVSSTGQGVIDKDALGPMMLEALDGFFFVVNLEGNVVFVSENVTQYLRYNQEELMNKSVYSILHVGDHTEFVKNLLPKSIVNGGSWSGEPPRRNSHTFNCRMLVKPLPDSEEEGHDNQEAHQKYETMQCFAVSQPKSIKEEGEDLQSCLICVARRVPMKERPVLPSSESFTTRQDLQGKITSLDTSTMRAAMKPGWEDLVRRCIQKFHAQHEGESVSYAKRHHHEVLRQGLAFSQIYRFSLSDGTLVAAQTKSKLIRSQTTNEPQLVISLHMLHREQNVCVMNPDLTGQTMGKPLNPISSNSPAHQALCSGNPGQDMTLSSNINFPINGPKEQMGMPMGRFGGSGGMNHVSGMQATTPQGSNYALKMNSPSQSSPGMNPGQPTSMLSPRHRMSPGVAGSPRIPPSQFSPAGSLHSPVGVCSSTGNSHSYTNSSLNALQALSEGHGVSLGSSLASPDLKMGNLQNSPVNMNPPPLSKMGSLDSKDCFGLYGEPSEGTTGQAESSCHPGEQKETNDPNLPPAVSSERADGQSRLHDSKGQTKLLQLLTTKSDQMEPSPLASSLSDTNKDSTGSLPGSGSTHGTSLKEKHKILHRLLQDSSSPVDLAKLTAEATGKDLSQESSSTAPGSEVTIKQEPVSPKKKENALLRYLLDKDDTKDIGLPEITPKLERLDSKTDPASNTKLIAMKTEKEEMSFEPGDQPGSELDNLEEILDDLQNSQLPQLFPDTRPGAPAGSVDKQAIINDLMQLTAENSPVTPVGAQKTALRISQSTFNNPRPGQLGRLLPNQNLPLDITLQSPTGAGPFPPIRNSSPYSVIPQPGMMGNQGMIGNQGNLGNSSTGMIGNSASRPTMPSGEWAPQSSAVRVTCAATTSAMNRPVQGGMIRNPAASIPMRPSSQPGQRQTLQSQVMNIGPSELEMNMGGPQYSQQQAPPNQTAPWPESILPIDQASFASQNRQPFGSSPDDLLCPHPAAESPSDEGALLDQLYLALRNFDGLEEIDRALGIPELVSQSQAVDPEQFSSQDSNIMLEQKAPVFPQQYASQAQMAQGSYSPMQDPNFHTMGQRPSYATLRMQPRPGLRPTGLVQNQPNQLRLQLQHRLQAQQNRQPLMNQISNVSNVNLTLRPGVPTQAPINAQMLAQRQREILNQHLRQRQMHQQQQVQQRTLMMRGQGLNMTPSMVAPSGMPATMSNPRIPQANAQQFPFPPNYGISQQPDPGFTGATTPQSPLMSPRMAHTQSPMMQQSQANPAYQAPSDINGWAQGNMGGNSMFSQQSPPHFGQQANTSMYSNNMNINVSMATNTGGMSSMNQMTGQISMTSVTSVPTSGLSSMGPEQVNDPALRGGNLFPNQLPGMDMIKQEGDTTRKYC
Peroxisome proliferator-activated receptor gamma/Nuclear receptor coactivator 1, sequence (P37231 whole entry): as the sequence (P37231 whole entry) above
Peroxisome proliferator-activated receptor gamma/Nuclear receptor coactivator 1, sequence (Q15788 whole entry, further chain): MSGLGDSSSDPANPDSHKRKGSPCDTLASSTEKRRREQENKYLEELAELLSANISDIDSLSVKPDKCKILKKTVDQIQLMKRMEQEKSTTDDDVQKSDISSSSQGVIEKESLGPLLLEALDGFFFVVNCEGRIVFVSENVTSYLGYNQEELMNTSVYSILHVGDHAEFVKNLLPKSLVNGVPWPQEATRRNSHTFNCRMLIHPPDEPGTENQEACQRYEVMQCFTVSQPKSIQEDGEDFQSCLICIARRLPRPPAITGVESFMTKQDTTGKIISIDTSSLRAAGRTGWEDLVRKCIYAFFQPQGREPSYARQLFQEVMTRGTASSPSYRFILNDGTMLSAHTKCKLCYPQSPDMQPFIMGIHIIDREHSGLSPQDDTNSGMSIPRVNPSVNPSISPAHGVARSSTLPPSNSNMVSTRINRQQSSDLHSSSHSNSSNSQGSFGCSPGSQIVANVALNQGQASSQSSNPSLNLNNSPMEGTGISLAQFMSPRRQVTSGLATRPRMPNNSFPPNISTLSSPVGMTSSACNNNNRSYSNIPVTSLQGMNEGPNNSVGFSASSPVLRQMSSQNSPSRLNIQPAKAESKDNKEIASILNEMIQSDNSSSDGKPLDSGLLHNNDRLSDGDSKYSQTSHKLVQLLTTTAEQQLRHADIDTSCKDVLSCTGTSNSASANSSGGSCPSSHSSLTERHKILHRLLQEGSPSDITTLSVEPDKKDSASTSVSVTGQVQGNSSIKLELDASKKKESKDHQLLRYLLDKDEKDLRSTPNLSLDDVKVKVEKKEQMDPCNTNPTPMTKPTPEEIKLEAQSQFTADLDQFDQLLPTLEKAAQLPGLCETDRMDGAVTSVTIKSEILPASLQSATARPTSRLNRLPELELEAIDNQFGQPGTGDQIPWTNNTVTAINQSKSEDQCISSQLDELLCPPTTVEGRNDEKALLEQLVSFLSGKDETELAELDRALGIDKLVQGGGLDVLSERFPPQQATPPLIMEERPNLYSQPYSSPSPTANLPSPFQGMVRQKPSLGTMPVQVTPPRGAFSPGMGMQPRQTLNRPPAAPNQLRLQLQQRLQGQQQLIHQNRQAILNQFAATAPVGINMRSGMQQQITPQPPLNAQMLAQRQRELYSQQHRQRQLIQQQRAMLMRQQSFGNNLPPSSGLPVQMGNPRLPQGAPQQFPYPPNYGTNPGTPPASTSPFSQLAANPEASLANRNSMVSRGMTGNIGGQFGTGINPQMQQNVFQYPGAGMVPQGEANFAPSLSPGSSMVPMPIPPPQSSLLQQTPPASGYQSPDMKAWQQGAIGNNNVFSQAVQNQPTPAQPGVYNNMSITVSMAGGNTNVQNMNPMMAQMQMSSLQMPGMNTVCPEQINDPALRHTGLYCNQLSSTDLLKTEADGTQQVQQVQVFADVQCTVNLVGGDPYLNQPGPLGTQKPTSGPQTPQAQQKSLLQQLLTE
Cytochrome P450 3A4, sequence (P08684 whole entry): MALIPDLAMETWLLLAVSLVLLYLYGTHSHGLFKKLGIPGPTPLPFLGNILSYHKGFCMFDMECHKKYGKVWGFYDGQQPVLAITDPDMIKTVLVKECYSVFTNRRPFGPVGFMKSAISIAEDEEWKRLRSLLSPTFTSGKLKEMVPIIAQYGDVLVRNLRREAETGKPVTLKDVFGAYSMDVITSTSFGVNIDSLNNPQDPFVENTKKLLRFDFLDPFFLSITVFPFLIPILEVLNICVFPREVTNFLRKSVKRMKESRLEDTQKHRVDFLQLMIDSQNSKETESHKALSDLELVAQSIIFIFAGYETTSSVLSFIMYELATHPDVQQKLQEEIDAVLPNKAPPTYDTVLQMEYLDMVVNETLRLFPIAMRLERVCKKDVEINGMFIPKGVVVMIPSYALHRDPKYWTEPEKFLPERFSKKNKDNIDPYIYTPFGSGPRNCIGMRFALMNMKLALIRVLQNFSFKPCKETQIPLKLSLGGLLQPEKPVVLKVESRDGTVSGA

In the case of `CCCN(CCC)C(=O)CSc1nc2c(sc(=S)n2-c2ccc(OCC)cc2)c(=O)[nH]1`, the IC50 [1] is reported as 68.3 µM (active) and the IC50 [2] is reported as 1.77 µM (active).

In the case of `CCCn1c(SCC(=O)Nc2nc3ccccc3s2)nc2c1c(=O)n(C)c(=O)n2C`, the EC50 [3] is reported as > 99 µM (inactive) and the EC50 [4] is reported as > 99 µM (inactive).

With `CCc1ccc(OC)c(S(=O)(=O)Nc2cccnc2)c1` the IC50 [5] was 1.72 µM (active) and the IC50 [6] was > 100 µM (not active).

For `N#C/C(=C/C1=C(N2CCOCC2)C(=C/c2cccc([N+](=O)[O-])c2)/CC1)C(=O)Nc1ccccc1F`, the EC50 [3] was > 99 µM (inactive) and the EC50 [4] was > 99 µM (inactive).

In the case of `Cn1ncc(/N=C/c2c(O)ccc3ccccc23)c1C(=O)Nc1cccc(Cl)c1`, the EC50 [3] is reported as 94.5 µM (inactive) and the EC50 [4] is reported as 26.2 µM (inactive).

For `O=C(NCC1CCN(Cc2ccc(Cl)cc2)CC1)C1CCCN(c2ncnc3c2nc2n3CCCCC2)C1` (stereo not given), the IC50 [7] was > 29.9 µM (inactive), the IC50 [8] was 8.14 µM (active) and the IC50 [9] was > 20 µM (inactive). For the same compound, the EC50 [10] was > 29.9 µM (inactive) and the IC50 [11] was 7.67 µM (active).

For `ClCc1csc(-c2ccccc2Cl)n1`, the EC50 [12] was > 79.4 µM (not active), the EC50 [13] was > 79.4 µM (not active) and the EC50 [14] was > 79.4 µM (inactive).

In the case of `CCCCCn1c(CN2CCN(c3cc(Cl)ccc3C)CC2)nc2c1c(=O)[nH]c(=O)n2C`, the EC50 [15] is reported as > 150 µM (not active), the EC50 [16] is reported as > 20 µM (not active) and the EC50 [17] is reported as 4.7 µM (active). The EC50 [18] was 12.8 µM (active), the AC50 [19] was 2.24 µM (inconclusive) and the EC50 [20] was 5.85 µM (active). The EC50 [21] was 4.65 µM (active) and the EC50 [22] was 5.57 µM (active).

For `COc1ccc(OC)c(C(=O)Nc2cnc3ccccc3c2)c1`, the IC50 [5] was > 100 µM (inactive) and the IC50 [6] was > 100 µM (not active).

For `O=c1c(Cl)c(N2CCN(S(=O)(=O)c3ccc(F)cc3)CC2)cnn1-c1cccc(Cl)c1`, the EC50 [12] was 9.06 µM (active), the EC50 [13] was 18.7 µM (not active) and the AC50 [19] was 20 µM (inconclusive). For the same compound, the EC50 [14] was 9.63 µM (active).

For `COc1cc(N(O)O)ccc1S(=O)(=O)Nc1cnc2ccccc2c1`, the IC50 [5] was 0.74 µM (active) and the IC50 [6] was > 100 µM (not active).

For `COc1cccc(-c2ccc(NC(=O)C3CCCN(Cc4cnc(C)n4C)C3)cc2)c1` (stereo not given), the CC50 [23] was > 25 µM (active) and the IC50 [24] was 20.3 µM (active).

In the case of `CN1C(=O)/C(=C/c2c[nH]nc2-c2ccccc2)SC1=S`, the IC50 [2] is reported as 0.653 µM (active).

With `CC(C)Sc1oc(-c2ccco2)nc1S(=O)(=O)c1ccccc1` the EC50 [12] was 9.32 µM (active), the EC50 [13] was > 79.4 µM (not active) and the EC50 [14] was 6.48 µM (active).

With `Cc1ccc(N(Cc2ccccc2)C(=O)CSC(C)C(=O)Nc2cc(C)on2)cc1` (stereo not given) the CC50 [23] was 23.3 µM (active) and the IC50 [24] was 15.6 µM (active).

With `O=C(c1cccc(S(=O)(=O)N2CCCC2)c1)N1CCCC(C(F)(F)F)C1` (stereo not given) the IC50 [8] was 8.31 µM (active), the IC50 [9] was > 20 µM (inactive) and the IC50 [11] was 10.7 µM (active).
